Structures are written as SMILES.

For the experiment, the target named is T1, Estrogen receptor (Homo sapiens, UniProt P03372).
T1 construct: purchased PanVera Corporation, Madison, Wis
As to the kind of experiment: Competitive fluorescence polarization assay, displacement of fluormone ES1 from ER by environmental compounds. Particulars: 1 nM ES1, 10 nM ER, 2.5 hours at room temperature, 360/485 nm. Type of experiment: binding. How it is done: Many compounds found in the environment are know to act as natural estrogens. […] The two pesticides were tested individually and together. […] Estrogen receptor was added to each tube at a final concentration of 10 nM. The mixtures were allowed to equilibrate for 2.5 hours at room temperature and the polarization values were read 360/485 nm excitation/emission.

T1 sequence (P03372 whole entry): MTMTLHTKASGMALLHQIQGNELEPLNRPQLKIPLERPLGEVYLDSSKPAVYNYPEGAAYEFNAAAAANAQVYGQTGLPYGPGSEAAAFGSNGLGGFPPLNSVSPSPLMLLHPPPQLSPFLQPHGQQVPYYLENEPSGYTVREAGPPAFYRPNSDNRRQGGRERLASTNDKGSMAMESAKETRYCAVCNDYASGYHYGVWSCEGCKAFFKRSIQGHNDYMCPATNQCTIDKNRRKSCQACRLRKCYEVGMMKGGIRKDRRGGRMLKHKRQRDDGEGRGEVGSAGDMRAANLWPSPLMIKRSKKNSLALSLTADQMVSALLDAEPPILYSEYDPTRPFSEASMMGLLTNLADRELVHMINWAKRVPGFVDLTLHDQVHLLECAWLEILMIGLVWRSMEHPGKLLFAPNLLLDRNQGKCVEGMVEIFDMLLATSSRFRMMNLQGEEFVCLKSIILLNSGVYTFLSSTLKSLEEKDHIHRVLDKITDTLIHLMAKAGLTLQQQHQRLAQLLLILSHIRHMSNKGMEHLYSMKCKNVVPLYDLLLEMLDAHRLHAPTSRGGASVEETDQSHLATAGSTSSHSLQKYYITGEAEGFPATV

`ClC1=C(Cl)C2(Cl)C3C(Cl)C(Cl)CC3C1(Cl)C2(Cl)Cl` (stereo not shown) [chlordane]: the “ability to displace fluormone ES1 binding to ER” value is “effectively competed the fluormone ES1 off the estrogen receptor”.

These data come from patent publication US6511815B1, “Method for quantitating competitive binding of molecules to proteins utilizing fluorescence polarization” (priority 1996, dated 2003).
